Some test systems named below: CCRF-CEM leukemia; COLO 205 colon; DU-145 prostate; EKVX NSCLC; HS 578T breast; M14 melanoma; MOLT-4 leukemia; SK-MEL-5 melanoma; UACC-62 melanoma; SNB-75 CNS.
Holding throughout (assay): NCI anticancer screen, dose series, 48 h

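These data come from cells grown in 96-well plates and exposed to compound for 48 hours at five concentrations. GI50 is the concentration that inhibits growth by half. TGI: total growth inhibition.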

On to `COc1c(O)cc2c(c1O)C(=O)C1=C(CCCC1)C2=O`, for which the TGI in the test with CCRF-CEM leukemia was 10.9 µM; with COLO 205 colon, 40.1 µM; in the test on DU-145 prostate, 74.3 µM; in the test on EKVX NSCLC, 86.6 µM; with HS 578T breast, 97.1 µM; in the test on M14 melanoma it was greater than 100 µM. Also, the TGI in the test with MOLT-4 leukemia came to 23 µM; in the test on SK-MEL-5 melanoma, 66 µM; with UACC-62 melanoma, 48.8 µM.
In the case of `CC[C@]1(O)CC2CN(CCc3c([nH]c4ccccc34)[C@@](C(=O)OC)(c3cc4c(cc3OC)N(C=O)[C@H]3[C@@](O)(C(=O)OC)[C@H](OC(C)=O)[C@]5(CC)C=CCN6CC[C@]43[C@@H]65)C2)C1` (some centres not stated), the GI50 in the test on CCRF-CEM leukemia is less than 0.005 µM; in the test on COLO 205 colon it was less than 0.005 µM; in the test with DU-145 prostate, less than 0.005 µM; in the test on EKVX NSCLC it was greater than 30.8 µM; with HS 578T breast it was 0.0486 µM; with M14 melanoma, 0.00632 µM. Besides, the GI50 in the test on MOLT-4 leukemia, with SK-MEL-5 melanoma and with UACC-62 melanoma was less than 0.005 µM in each case. In addition, the TGI in the test on COLO 205 colon was less than 0.005 µM; in the test on EKVX NSCLC it was greater than 50 µM; in the test on HS 578T breast, greater than 46.1 µM; in the test on M14 melanoma, 0.679 µM; in the test with SK-MEL-5 melanoma it was 0.059 µM; in the test with UACC-62 melanoma, greater than 50 µM.
`OCc1ccc(N2CCc3cc(F)ccc3C2)cc1Cl`: the GI50 with CCRF-CEM leukemia is 3.9 µM; in the test with COLO 205 colon it was 0.0828 µM; in the test with DU-145 prostate it was 6.67 µM; with HS 578T breast it was 21.3 µM; in the test on M14 melanoma, 16.2 µM; in the test with MOLT-4 leukemia, 15 µM. Moreover, the GI50 in the test on SK-MEL-5 melanoma was 3.95 µM; in the test on SNB-75 CNS it was 15.1 µM; in the test on UACC-62 melanoma it was 0.0256 µM. In addition, the TGI in the test with CCRF-CEM leukemia worked out at 28.9 µM; in the test on COLO 205 colon it was 0.353 µM; in the test on DU-145 prostate it was 20.6 µM; in the test on HS 578T breast, 59.1 µM; with M14 melanoma, 30.7 µM; with MOLT-4 leukemia it was 47.4 µM. Also, the values for the TGI in the test with SK-MEL-5 melanoma, in the test with SNB-75 CNS and in the test with UACC-62 melanoma were 20.4 µM, 28.6 µM and 0.198 µM, respectively.
`CN(C)C=NC1CCC(C(C)(C)C)CC1` (configuration not stated): the TGI with COLO 205 colon is 33.2 µM; with DU-145 prostate, 61.3 µM; in the test with EKVX NSCLC it was 59.8 µM; in the test on HS 578T breast, 42 µM; with M14 melanoma it was 33.6 µM; with MOLT-4 leukemia, 32.2 µM. Also, the TGI in the test on SK-MEL-5 melanoma is 31 µM; in the test on SNB-75 CNS, 34.9 µM; in the test on UACC-62 melanoma, 33.8 µM.
Turning to `O=C(Nc1cccc(-n2cc(-c3ccncc3)c(-c3ccc(O)c(Cl)c3)n2)c1)c1cc(C(F)(F)F)cc(C(F)(F)F)c1`, the GI50 in the test on CCRF-CEM leukemia was 2.21 µM; in the test on COLO 205 colon, 9.82 µM; with DU-145 prostate, 12.6 µM; in the test on HS 578T breast it was 5.19 µM; in the test on M14 melanoma, 3.3 µM; in the test on MOLT-4 leukemia it was 2.88 µM. In addition, the results for the GI50 in the test with SK-MEL-5 melanoma, in the test with SNB-75 CNS and in the test on UACC-62 melanoma were 4.61 µM, 2.35 µM and 10.6 µM, respectively. Further, the TGI in the test on CCRF-CEM leukemia was greater than 50 µM; with COLO 205 colon, 23.5 µM; in the test with DU-145 prostate it was greater than 50 µM; with HS 578T breast it was greater than 50 µM; in the test on M14 melanoma, greater than 50 µM; with MOLT-4 leukemia it was greater than 50 µM. For the same compound, the values for the TGI in the test on SK-MEL-5 melanoma, in the test on SNB-75 CNS and in the test on UACC-62 melanoma were 16.9 µM, greater than 50 µM and greater than 50 µM, respectively.
As for `C[C@@H](NC(=O)c1ncnc(N)c1Cl)c1ncc(C(=O)Nc2cc(C(F)(F)F)c(Cl)cn2)s1`, the GI50 in the test on CCRF-CEM leukemia is 25.4 µM; in the test with COLO 205 colon, 0.616 µM; in the test on DU-145 prostate, 26.7 µM; in the test on HS 578T breast, 23.4 µM; in the test with M14 melanoma it was 0.497 µM; in the test on MOLT-4 leukemia, 23 µM. Further, the GI50 is 8.91 µM in the test on SK-MEL-5 melanoma, 23.1 µM with SNB-75 CNS and 0.402 µM with UACC-62 melanoma. For the same compound, the TGI in the test with CCRF-CEM leukemia was greater than 100 µM; in the test with COLO 205 colon, 24.3 µM; with DU-145 prostate it was greater than 82.7 µM; in the test on HS 578T breast, 98.9 µM; with M14 melanoma, 13.6 µM; with MOLT-4 leukemia, 68.7 µM. Also, the TGI in the test on SK-MEL-5 melanoma was determined as 24.1 µM; in the test on SNB-75 CNS it was 94.4 µM; with UACC-62 melanoma, 8.7 µM.
In the case of `NC1=NC(=O)/C(=C/c2ccc3ncccc3c2)S1`, the GI50 in the test on CCRF-CEM leukemia, in the test with COLO 205 colon, in the test on DU-145 prostate, in the test with HS 578T breast, in the test with M14 melanoma and in the test on MOLT-4 leukemia was greater than 25 µM each time. Further, the GI50 with SK-MEL-5 melanoma, in the test with SNB-75 CNS and with UACC-62 melanoma was greater than 25 µM each time. The TGI in the test with CCRF-CEM leukemia, with COLO 205 colon, with DU-145 prostate, with HS 578T breast, with M14 melanoma and with MOLT-4 leukemia was greater than 25 µM in each case. Also, the TGI with SK-MEL-5 melanoma, with SNB-75 CNS and in the test with UACC-62 melanoma was greater than 25 µM throughout.
As for `O=C(O)c1c(Cl)c(Cl)c(Cl)c(Cl)c1C(=O)Nc1ccc2cn[nH]c2c1`, the TGI in the test on COLO 205 colon, with DU-145 prostate, in the test on EKVX NSCLC, in the test with HS 578T breast, in the test on M14 melanoma and in the test with SK-MEL-5 melanoma was greater than 100 µM in each case. The TGI in the test on SNB-75 CNS and with UACC-62 melanoma was greater than 100 µM throughout.
For the compound `C/C(=N\n1c(O)c(C#N)cc(C#N)c1=O)c1ccncc1`, the GI50 in the test on CCRF-CEM leukemia, with COLO 205 colon, in the test on DU-145 prostate, in the test with EKVX NSCLC, in the test with HS 578T breast and in the test on M14 melanoma was greater than 100 µM in each case. Further, the GI50 in the test with MOLT-4 leukemia, with SK-MEL-5 melanoma and in the test with UACC-62 melanoma was greater than 100 µM throughout. Further, the TGI with CCRF-CEM leukemia, in the test on COLO 205 colon, in the test on DU-145 prostate, in the test with EKVX NSCLC, in the test on HS 578T breast and in the test with M14 melanoma was greater than 100 µM in each case. For the same compound, the TGI with MOLT-4 leukemia, in the test on SK-MEL-5 melanoma and in the test on UACC-62 melanoma was greater than 100 µM in each case.
As for `CC(c1ccccc1)[C@@H](C(=O)Nc1ccc(I)cc1F)N1C(=O)N[C@H](c2ccc(OC[C@H](O)CO)cc2)C1=O` (some centres not stated), the GI50 in the test with CCRF-CEM leukemia is 14.3 µM; with COLO 205 colon, 0.0368 µM; in the test on DU-145 prostate it was 15.3 µM; in the test on HS 578T breast it was 16.3 µM; in the test on M14 melanoma, 0.0707 µM; in the test on MOLT-4 leukemia, 12.5 µM. Besides, the values for the GI50 with SK-MEL-5 melanoma, in the test with SNB-75 CNS and in the test on UACC-62 melanoma were 0.85 µM, greater than 11.1 µM and 0.0551 µM, respectively. For the same compound, the TGI is greater than 25 µM in the test with CCRF-CEM leukemia; greater than 25 µM with COLO 205 colon; greater than 25 µM in the test on DU-145 prostate; greater than 25 µM with HS 578T breast; 5.74 µM with M14 melanoma; greater than 25 µM in the test on MOLT-4 leukemia. In addition, the TGI is greater than 25 µM in the test on SK-MEL-5 melanoma, greater than 25 µM in the test with SNB-75 CNS and 2.25 µM in the test with UACC-62 melanoma.
`Cc1c(-c2ccc(O)cc2)oc(=O)c2ccc(O)cc12`: the GI50 with CCRF-CEM leukemia is 32.6 µM; in the test on COLO 205 colon it was greater than 100 µM; in the test with DU-145 prostate, 75.8 µM; with EKVX NSCLC it was 54.6 µM; in the test on HS 578T breast, 43.5 µM; in the test with M14 melanoma, 40.3 µM. Also, the GI50 in the test with MOLT-4 leukemia was 73.7 µM; in the test with SK-MEL-5 melanoma, 33.3 µM; in the test on UACC-62 melanoma, 35.2 µM. The TGI in the test on CCRF-CEM leukemia, in the test with COLO 205 colon, in the test on DU-145 prostate, in the test on EKVX NSCLC, with HS 578T breast and in the test with M14 melanoma was greater than 100 µM throughout. Besides, the TGI in the test with MOLT-4 leukemia, with SK-MEL-5 melanoma and with UACC-62 melanoma was greater than 100 µM each time.
Take `O=C(CCl)Nc1cc(Cl)c(Cl)cc1Cl`: the TGI with CCRF-CEM leukemia was 5.99 µM; in the test with COLO 205 colon, 3.35 µM; in the test with DU-145 prostate it was 7.06 µM; with EKVX NSCLC, 4.67 µM; with HS 578T breast, 8.56 µM; with M14 melanoma, 2.96 µM. The TGI with MOLT-4 leukemia is greater than 10 µM; with SK-MEL-5 melanoma it was 3.17 µM; in the test with UACC-62 melanoma it was 3.59 µM.
For `CCCCCC[C@@H](C)Nc1nc2ccccc2c2occc12`, the GI50 in the test on CCRF-CEM leukemia was 12.2 µM; with COLO 205 colon, 21.2 µM; with DU-145 prostate, 9.79 µM; with EKVX NSCLC it was 0.39 µM; in the test on HS 578T breast it was 16.5 µM; in the test on M14 melanoma, 11.2 µM. In addition, the GI50 with MOLT-4 leukemia is 20.9 µM; with SK-MEL-5 melanoma, 2.89 µM; in the test on UACC-62 melanoma, 13.2 µM. In addition, the TGI in the test with CCRF-CEM leukemia is 39.2 µM; in the test on COLO 205 colon, greater than 100 µM; with DU-145 prostate, 21.5 µM; in the test with EKVX NSCLC, 5 µM; with HS 578T breast it was 40.5 µM; with M14 melanoma, 23.2 µM. In addition, the figures for the TGI in the test on MOLT-4 leukemia, in the test with SK-MEL-5 melanoma and with UACC-62 melanoma were greater than 100 µM, 18 µM and 25.9 µM, respectively.
Regarding `N#Cc1ccccc1C#C/C=C\C#CC#C/C=C\C#Cc1ccccc1C#N`, the GI50 in the test with CCRF-CEM leukemia was 4.95 µM; with COLO 205 colon it was 7.33 µM; in the test with DU-145 prostate, 29.3 µM; in the test with EKVX NSCLC, 16.5 µM; in the test with HS 578T breast it was 5.38 µM; in the test with M14 melanoma, 11.3 µM. Further, the figures for the GI50 in the test on MOLT-4 leukemia, in the test with SK-MEL-5 melanoma and with UACC-62 melanoma were 15.6 µM, 10.4 µM and 14.7 µM, respectively. Also, the TGI in the test on CCRF-CEM leukemia is greater than 100 µM; in the test with COLO 205 colon, 21.1 µM; in the test with DU-145 prostate it was greater than 100 µM; in the test with EKVX NSCLC it was greater than 100 µM; in the test on HS 578T breast, 78.8 µM; in the test on M14 melanoma, 35.5 µM. For the same compound, the TGI in the test with MOLT-4 leukemia is 89.3 µM; in the test on SK-MEL-5 melanoma it was 27.9 µM; in the test on UACC-62 melanoma, 40.6 µM.

(Values after PubChem BioAssay (NCI).)
